The source of these data is paper PMC9401038 (Angewandte Chemie (International Ed. in English), 2022).

Data set [1] has as its system zebrafish larvae cardiac rhythm. As to the kind of experiment: Cardiac frequency monitoring in zebrafish larvae under dark/380 nm/550 nm. The data set is classed as in vivo. The following applies: 10 μM, 7 dpf larvae, dark and both illumination conditions equivalent.
In data set [2] the target is β1‐AR (Homo sapiens, UniProt P08588). As to the kind of experiment: β1‐AR functional cAMP assay. The class given is cell-based. (cAMP levels reflect the balance of adenylyl cyclase and phosphodiesterase activity.)
β1‐AR, sequence (P08588 whole entry): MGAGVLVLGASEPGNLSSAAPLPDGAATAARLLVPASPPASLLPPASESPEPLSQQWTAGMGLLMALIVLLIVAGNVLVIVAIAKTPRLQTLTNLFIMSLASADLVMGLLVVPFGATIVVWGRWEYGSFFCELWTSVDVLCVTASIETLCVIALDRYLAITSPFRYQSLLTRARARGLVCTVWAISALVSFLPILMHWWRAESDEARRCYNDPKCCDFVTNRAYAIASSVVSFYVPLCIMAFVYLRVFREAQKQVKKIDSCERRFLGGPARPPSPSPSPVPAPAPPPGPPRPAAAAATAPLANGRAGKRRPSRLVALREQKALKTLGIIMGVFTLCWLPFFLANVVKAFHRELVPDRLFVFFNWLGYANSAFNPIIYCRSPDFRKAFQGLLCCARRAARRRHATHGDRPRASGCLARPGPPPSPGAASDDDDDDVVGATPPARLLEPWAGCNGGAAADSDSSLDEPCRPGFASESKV
A short description of data set [3]: Photostationary state quantification by 1H‐NMR. The data set is classed as physicochemical. Particulars: 12 °C, 100 μM in D2O.
The target in data set [4] is β2‐AR (Homo sapiens, UniProt P07550). Nature of the data set: β2‐AR inhibition of cimaterol-stimulated cAMP in HEK293 H188 M1 cells. Particulars: in the dark and upon illumination at 380 nm, cimaterol 3 nM.
β2‐AR, sequence (P07550 whole entry): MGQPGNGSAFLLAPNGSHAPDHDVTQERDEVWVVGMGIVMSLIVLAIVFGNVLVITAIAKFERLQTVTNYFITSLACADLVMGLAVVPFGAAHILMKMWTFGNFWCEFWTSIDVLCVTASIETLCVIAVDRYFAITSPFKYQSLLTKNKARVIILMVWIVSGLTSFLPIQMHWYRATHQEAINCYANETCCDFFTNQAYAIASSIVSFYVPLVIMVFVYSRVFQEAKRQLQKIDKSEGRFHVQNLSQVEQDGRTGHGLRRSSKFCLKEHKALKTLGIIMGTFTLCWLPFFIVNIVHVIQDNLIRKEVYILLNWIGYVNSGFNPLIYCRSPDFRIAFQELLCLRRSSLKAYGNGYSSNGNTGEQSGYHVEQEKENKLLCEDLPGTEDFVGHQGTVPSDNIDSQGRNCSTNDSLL
The nature of data set [5]: UV/Vis photochemical characterization. The data set is classed as physicochemical.
Where [6] appears, read: 50 μM in Epac buffer+0.5 % DMSO, 25–28 °C.

“And” between values parts separate entries of the source, which are not always exact repeats. Equal values may be shown once.

A word on the EC50: it is the midpoint of the concentration-response curve.

Regarding `COc1ccccc1OCCNCC(O)COc1cccc2[nH]c3ccccc3c12` (stereo not drawn) [Carvedilol, carvedilol], in data set [1], the cardiac rhythm result is reported as “significant reduction in the cardiac rhythm”.
In the case of `CC(C)NC[C@H](O)COc1ccc(/N=N/c2ccccc2)cc1` [pAzo‐1], the EC50 in data set [2] (EC50 DARK, dark (trans isomer)) was determined as 15.1 nM; in data set [2] (EC50 LIGHT, constant violet light 380 nm (cis isomer)), 331 nM. Further, in data set [2] (dark, ratio of 1 implies no selectivity towards β1‐AR), the “β1/β2 ratio DARK” value is reported as 161.8. In addition, in data set [2] (two β1‐AR expression levels), the “functional profile towards β1‐AR” value is on record as “low efficacy partial agonists”. In addition, the “β1/β2 ratio LIGHT” value in data set [2] (violet light 380 nm, ratio of 1 implies no selectivity) came out at 8.6. The “PPS (Photoinduced Potency Shift)” value in data set [2] (β1‐AR, relation between EC50 in light and dark) worked out at 20.08. The same molecule yielded a PSS365 in data set [3] (after 365 nm illumination) of 95 %cis. Besides, the PSS530 in data set [3] (after 525 nm illumination) was 76.3 % trans and 76 % trans. Also, in data set [4], the “IC50 values against β2‐AR” value is on record as “within the μM range”. The molecule further registered a τ cis→trans in data set [5] of 57.6 s⁻¹. In data set [5] (setting [6]), the “λ n‐π* (cis)” value was 430 nm. Moreover, the “λ π‐π* (trans)” value in data set [5] (setting [6]) is given as 346 nm. Besides, the “t 1/2 (thermal relaxation of cis isomer)” value in data set [5] (50 μM in Epac buffer+0.5 % DMSO, 28 °C, after 3 min 365 nm) was 67.6 h. In addition, the τ trans→cis in data set [5] (365 nm, CoolLED 5 % intensity (0.1 mW mm^−2), 50 μM in Epac buffer+0.5 % DMSO) came out at 4.4 s⁻¹.
